No end group written: not given here.
Tests used:
PxHK mRNA in the midgut = assay: Ex vivo midgut incubation with sNPF and signalling inhibitors, PxHK mRNA; format: cell-based, Plutella xylostella; conditions: midgut ex vivo, 20 µM sNPF + 10 µM U73122 (PLCβ inhibitor), 25 °C, 1 h; n = 5; words
Protocol: (§1) The in vitro incubations of fat body or midgut were performed as previously described with minor modifications (Cheng et al, [2022]). The fat bodies and midguts from non-parasitised middle 4th instar P. xylostella larvae were collected in 0.5 mL of PBS. The collected tissues were then preincubated in culture dishes containing TNM-FH medium (HyClone) for 30 min. sNPF peptides or inhibitors were administered to isolated fat body and midgut in vitro using a modified method from a previous study (Oh et al, [2019]). 1 mM stock solution of pertussis toxin (PTX, Tocris Bioscience) or U73122 (MedChemExpress) was dissolved in DMSO (Sigma-Aldrich) and kept at −80 °C. 0.1 ng/µl PTX or 10 µM U73122 were then mixed with 20 µM sNPF-contained TNM-FH medium. Preincubated tissues were incubated in these mixtures at 25 °C for 1 h, followed by total RNA isolation and qPCR.

PxsNPF mRNA = PxsNPF mRNA after injection of venom, CvBV or teratocytes; format: in vivo, Plutella xylostella
Text: (§2) To analyse gene expression in different tissues, P. xylostella larvae were dissected under the microscope, followed by the collection of the silk gland, fat body, midgut, haemocytes and central nervous system (CNS, brain and ventral nerve cord). Haemocytes were collected on clean Parafilm membranes with capillaries by bleeding the larvae from a cut proleg. To explore gene expression at different instars of parasitised or non-parasitised larvae, non-parasitised larva was isolated individually using RNA-easy Isolation Reagent (Vazyme). Parasitoid larvae were removed before parasitised hosts were isolated. As for the measurement of other experiments, per larva with different treatments was isolated individually using RNA-easy Isolation Reagent according to the manufacturer’s instructions.
The quality and concentrations of total RNAs were estimated by electrophoresis and NanoDrop 2000 spectrophotometer (Thermo Fisher Scientific). First-strand cDNAs were synthesised using the ReverTra Ace qPCR RT kit (Toyobo) according to the manufacturer’s instructions. Both β-actin (GenBank Acc. No.: AB282645) and β-tubulin (GenBank Acc. No.: EU127912) of P. xylostella were used as internal controls. […] Relative gene expression levels were calculated using the 2^−ΔΔCt method. […]

[1] = tested on: PxGP, PxHK and PxTPS mRNA; assay: qPCR of PxGP, PxHK, PxTPS in larvae injected with synthetic sNPF, venom, CvBV or teratocytes; format: in vivo, Plutella xylostella
Text: as §2
(§3) The quality and concentrations of total RNAs were estimated by electrophoresis and NanoDrop 2000 spectrophotometer (Thermo Fisher Scientific). First-strand cDNAs were synthesised using the ReverTra Ace qPCR RT kit (Toyobo) according to the manufacturer’s instructions. Both β-actin (GenBank Acc. No.: AB282645) and β-tubulin (GenBank Acc. No.: EU127912) of P. xylostella were used as internal controls. Primer sequences used for qPCR analysis are shown in Appendix Table S4. qPCR was performed by using THUNDERBIRD® SYBR qPCR Mix (Toyobo) on the CFX Connect real-time system (Bio-Rad). All qPCR assays were performed using four internal replicates and at least three biological replicates under the following conditions: 95 °C for 60 s and 40 cycles of 95 °C for 15 s and 60 °C for 30 s. Relative gene expression levels were calculated using the 2^−ΔΔCt method.
(§4) Microinjections were performed under a Stemi 2000C microscope (Zeiss) using glass capillary injection needles and an Eppendorf Femtojet (Eppendorf) with a microcontroller (Narishige). To confirm the function of bovine insulin on hosts, 1 μg bovine insulin (Sigma-Aldrich, I0305000) was injected into the middle 3rd instar P. xylostella larvae. To identify the effect of each parasitic factor on hosts, 0.05 FE CvBV or 0.05 VRE venom was injected into the abdomen of the middle 3rd instar P. xylostella larva (Wang et al, [2018]; Yu et al, [2007]). 1 TE teratocytes’ content was microinjected into the early 4th instar P. xylostella larvae. To confirm the function of each synthetic sNPF peptide, 0.005 ng, 0.05 ng, or 0.5 ng of each peptide was injected into the middle 3rd instar P. xylostella larvae in a volume of 0.1 μl/per larva once per day for 3 consecutive days.

P. xylostella larvae [2] = assay: Circulating haemolymph trehalose after injection of synthetic sNPF peptides, venom, CvBV or teratocyte content; format: in vivo, Plutella xylostella; conditions: for effect on haemolymph trehalose level: synthetic PxsNPFs, injected into 3M larvae, measured at 4M, high dosage 0.5 ng per larva, n = 4-6, words
Protocol: as §4
For P. xylostella larvae, 1 μl of haemolymph from the moth was diluted 60-fold in cold PBS and subjected to trehalose determination. The fat body of P. xylostella larvae was homogenised in 200 μl of cold PBS. Half of the homogenate was centrifuged at 13,000 rpm for 15 min, and the supernatant was used for protein content determination by Bradford Reagent (Invitrogen). The rest was heated at 70 °C for 5 min followed by centrifuging at 13,000 rpm for 15 min, and the supernatant was used for glycogen determination.
Trehalose content determination was performed by the anthrone sulfate method. 15 μL of the sample was incubated with 15 μL of 1% H2SO4 at 90 °C for 10 min, then 15 μL of 30% KOH was added and incubated at 90 °C for 10 min. Finally, 300 μl of 0.2% anthrone (Sigma-Aldrich) solution in 96% H2SO4 was added and incubated at 90 °C for 10 min. All reactions were stopped by immersion in ice. To create a trehalose standard curve, 15 μl of trehalose standards (Sigma-Aldrich) were treated similarly as a sample. Finally, 100 μl of each sample was added to a 96-well plate. The absorbance of samples was then measured at 630 nm on a SpectraMax® iD5 Multi-Mode Microplate Reader (Molecular Devices), and the trehalose levels were calculated based on the standard curve and normalised by protein content or sample volume.

[3] = tested on: Spodoptera exigua and Antheraea pernyi; conditions: bovine insulin injection, words, ref PMID: 25703302, 34564224; cited from earlier work
Text: page 9: short summary of the existing data, including for instance, which species this experiment has been conducted in and the data linking bovine insulin to activation of insect insulin-like pathways. […] Response: Thank you for pointing out the need to better justify the use of bovine insulin in our experimental design.

P. xylostella larvae [4] = assay: Haemolymph trehalose after bovine insulin; format: in vivo, Plutella xylostella; conditions: 1 μg bovine insulin, words
Protocol: as §4
For P. xylostella larvae, 1 μl of haemolymph from the moth was diluted 60-fold in cold PBS and subjected to trehalose determination. The fat body of P. xylostella larvae was homogenised in 200 μl of cold PBS. […]
Trehalose content determination was performed by the anthrone sulfate method. […] The absorbance of samples was then measured at 630 nm on a SpectraMax® iD5 Multi-Mode Microplate Reader (Molecular Devices), and the trehalose levels were calculated based on the standard curve and normalised by protein content or sample volume.

[5] = tested on: PxInR, PxGP, PxHK and PxTPS mRNA; assay: qPCR of PxInR, PxGP, PxHK, PxTPS after bovine insulin; format: in vivo, Plutella xylostella; conditions: for PxInR relative expression, average: Figure 3D; for PxInR relative expression, average / PxGP relative expression, average: normalised to Pxβ-actin and Pxβ-tubulin; for PxGP relative expression, average / PxGP relative expression: Figure 3E
Text: as §2, §3, §4

[6] = tested on: PxGP mRNA in the fat body; assay: Ex vivo fat body incubation with sNPF and signalling inhibitors, PxGP mRNA; format: cell-based, Plutella xylostella; conditions: 20 µM sNPF + PTX (0.4 µM in legend, 0.1 ng/µl in method), 25 °C, 1 h, n = 6, words
Protocol: as §1

[7] = molecular target: Plutella xylostella sNPF receptor (PxsNPFR) (Plutella xylostella)

In the case of `COc1ccc2c(c1)CC[C@@H]1[C@@H]2CC[C@]2(C)[C@@H](NCCCCCCN3C(=O)C=CC3=O)CC[C@@H]12` [U73122, reference compound], the “effect on sPxsNPF-1-stimulated PxHK mRNA” value (PxHK mRNA in the midgut) is reported as “abolished the facilitatory effect of sPxsNPF-1 on PxHK”.

With Cotesia vestalis bracovirus [CvBV] the PxsNPF expression (PxsNPF mRNA; 24 h after injection, n = 3-6, words) was “an increase in PxsNPF expression 24 h after CvBV injection”, the “PxsNPF relative expression, Average” value (PxsNPF mRNA; Figure 5K, 3M, average of replicates, vs PBS) was 1.99 and the “PxGP relative expression, average” value ([1]; Figure 4B, CvBV injection, qPCR, Pxβ-actin and Pxβ-tubulin reference, relative to PBS (normalizer 6.00), mean of 5 replicates, SD 0.29) was 0.87. The “PxGP relative expression, average” value ([1]; Figure 4B, PxGP vs PBS, Pxβ-actin/Pxβ-tubulin reference, mean of 5 replicates) was 1.73, the “PxHK relative expression, Average” value ([1]; Figure 4B, PxHK vs PBS, Pxβ-actin/Pxβ-tubulin reference, mean of 5 replicates) was 2.64 and the PxHK relative expression ([1]; Figure 4B, PxHK vs PBS, Pxβ-actin/Pxβ-tubulin reference, replicate 1) was 2.97. It also gave a PxHK relative expression ([1]; Figure 4B, PxHK vs PBS, Pxβ-actin/Pxβ-tubulin reference, replicate 2) of 2.49, a PxHK relative expression ([1]; Figure 4B, PxHK vs PBS, Pxβ-actin/Pxβ-tubulin reference, replicate 3) of 2.41 and a PxHK relative expression ([1]; Figure 4B, PxHK vs PBS, Pxβ-actin/Pxβ-tubulin reference, replicate 4) of 2.30. The PxHK relative expression ([1]; Figure 4B, PxHK vs PBS, Pxβ-actin/Pxβ-tubulin reference, replicate 5) was 3.01, the “transcript level of PxHK” value ([1]; non-parasitised larvae (whole body), CvBV, 3L, n = 5, words) was “increases the transcript level of PxHK” and the “increase of circulating trehalose” value (P. xylostella larvae [2]; 0.05 FE CvBV injected into 3M larvae, at 3L, n = 3-4) was 40%.

For “DTRQPVRLRF-NH2 [sPxsNPF-2, synthetic short neuropeptide F-2 of Plutella xylostella]”, the “effect on haemolymph trehalose level” value (P. xylostella larvae [2]) was “did not have this effect”.

In the case of “SVRAPSMRLRF-NH2 [sPxsNPF-3, synthetic short neuropeptide F-3 of Plutella xylostella]”, the “effect on haemolymph trehalose level” value (P. xylostella larvae [2]) is reported as “did not have this effect”.

For bovine insulin, the hemolymph trehalose levels [3] is given as “significant reduction in hemolymph trehalose levels”, the blood trehalose level (P. xylostella larvae [4]; normal (non-parasitised) larvae) is given as “reduces the blood trehalose level” and the haemolymph trehalose level (P. xylostella larvae [4]; parasitised host, 4M, n = 4-5) is given as “not reduced by bovine insulin in the parasitised host as in the non-parasitised group”. The PxGP expression ([5]; 1 μg bovine insulin, parasitised host, 4M, n = 4-5, words) was “not reduced by bovine insulin in the parasitised host as in the non-parasitised group”, the PxInR expression ([5]; 1 μg bovine insulin, whole body, 4M, n = 4-5, non-parasitised and parasitised, words) was “upregulated in both non-parasitised and parasitised hosts” and the “PxInR relative expression, average” value ([5]; NP, mean of 5 replicates) was 3.425. The “PxInR relative expression, average” value ([5]; P, mean of 4 replicates) was 7.591, the “PxGP relative expression, average” value ([5]; NP, mean of 5 replicates) was 0.3318 and the PxGP relative expression ([5]; NP, replicate 1) was 0.3933. It also gave a PxGP relative expression ([5]; NP, replicate 2) of 0.2777, a PxGP relative expression ([5]; NP, replicate 3) of 0.2734 and a PxGP relative expression ([5]; NP, replicate 4) of 0.4168. For the same molecule, the PxGP relative expression ([5]; NP, replicate 5) was 0.298, the “PxGP relative expression, average” value ([5]; P, mean of 4 replicates) was 3.4733 and the PxGP relative expression ([5]; P, replicate 1) was 3.51. The PxGP relative expression ([5]; P, replicate 2) was 4.4126, the PxGP relative expression ([5]; P, replicate 3) was 3.361 and the PxGP relative expression ([5]; P, replicate 4) was 2.609.

With pertussis toxin [PTX] the “effect on sCvsNPF-stimulated PxGP mRNA” value [6] was “decreased the sCvsNPF activation of PxGP”.

SQRSPSLRLRF-NH2 [synthetic CvsNPF (Cotesia vestalis short neuropeptide F)] showed an inhibition of forskolin-stimulated cAMP accumulation in PxsNPFR-expressing HEK293 cells (10 μM forskolin, various peptide concentrations, 15 min; cAMP-Glo), EC50 [7] of 402 nM.
